Experimental data as given in publication PMC6162302, “A modified serine cycle in Escherichia coli coverts methanol and CO2 to two-carbon compounds” (Nature Communications, 2018).

Biological target: T1, Medh(CT4–1), variant of Mdh2 (Cupriavidus necator, UniProt F8GNE5)
T1 construct: engineered variant CT4-1 of Mdh2, N-terminal His-tag, expressed in E. coli BL21(DE3), His-Spin column purified
T1 sequence (F8GNE5 1-390): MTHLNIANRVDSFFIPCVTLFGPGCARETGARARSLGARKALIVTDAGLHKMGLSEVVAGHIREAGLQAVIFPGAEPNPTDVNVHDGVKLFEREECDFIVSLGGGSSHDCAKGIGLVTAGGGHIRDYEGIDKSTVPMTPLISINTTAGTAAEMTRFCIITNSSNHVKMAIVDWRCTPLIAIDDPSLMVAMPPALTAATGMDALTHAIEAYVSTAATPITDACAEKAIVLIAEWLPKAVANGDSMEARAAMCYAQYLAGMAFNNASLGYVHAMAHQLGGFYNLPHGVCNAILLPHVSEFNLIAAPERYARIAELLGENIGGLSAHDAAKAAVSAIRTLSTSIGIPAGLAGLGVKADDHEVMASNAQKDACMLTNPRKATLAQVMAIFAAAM
Experiment: NADH formation at […] nm
Format: biochemical
Details: 500 mM methanol, 5 mM MgCl2, 100 mM NaHCO3 pH 9.5, 37 °C

SMILES: NC(=O)c1ccc[n+]([C@@H]2O[C@H](COP(=O)(O)OP(=O)(O)OC[C@H]3O[C@@H](n4cnc5c(N)ncnc54)[C@H](O)[C@@H]3O)[C@@H](O)[C@H]2O)c1 [NAD]
- NADH formation at 340 nm: oxidation of methanol to formaldehyde with the formation of NADH
